Data reported in patent US10906946B2, “Thrombin inhibitors” (priority 2015, dated 2021).
Peptide text beside a SMILES is read from it.

Tests used:
clot-bound thrombin = clot-bound thrombin (Homo sapiens, UniProt P00734); test: biochemical
Protocol: Clot-bound thrombin activity was tested using S2238. Briefly, fibrin clots were prepared by incubating 100 μL of 2 mg/mL fibrinogen (in 50 mM HEPES buffer, pH 7.5, 150 mM NaCl, 10 mg/mL CaCl2) with 100 μL 30 nM thrombin. After 2 h at 37° C., the clots were extensively washed with the same buffer. This washing was repeated after every three hours for a period of 24 hr. […] Chromogenic substrate, S2238 (final concentration 200 μM) was then added and the reaction mixture was incubated for 90 min at 37° C. Aliquots were taken, and substrate hydrolysis was estimated by end point reading at 405 nm, using a Tecan InfinitePro microplate reader. Experiments were performed in quadruplicate and percentage inhibition was plotted.

[1] = test system: other serine proteases (trypsin, fIXa, fXIa, fXa, chymotrypsin, tPA, fVIIa, plasmin, APC, kallikrein, urokinase, fXIIa); test: Serine protease selectivity screen (amidolytic assays with chromogenic substrates); type: biochemical
Protocol: Avathrin was screened for its selectivity against 13 serine proteases including procoagulant, anticoagulant, fibrinolytic and classical serine proteases (thrombin, trypsin, fIXa, fXIa, fXa, chymotrypsin, tPA, fVIIa, plasmin, APC, kallikrien, urokinase and fXIIa). […]
Thrombin amidolytic activity assays for all peptides were performed in 96-wells microtiter plates in 50 mM Tris buffer (pH 7.4) containing 100 mM NaCl and 1 mg/ml bovine serum albumin. […] The rates of formation of p-nitroaniline were followed by measuring the absorbance at 405 nm for 10 min with a Tecan InfinitePro M200 microplate reader from Tecan (Männedorf, Switzerland). […] To measure the inhibitory constants, different concentrations of S2238 were used and the residual velocities were determined using the Morrison's tight binding equation. Inhibition of thrombin fibrinogenolytic activity of peptides were tested by measuring absorbance at 650 nm using a Sunrise microplate reader from Tecan (Männedorf, Switzerland) as described previously [Koh C Y, et al., J Biol Chem 282: 29101-13 (2007)]. […] Effects of avathrin on the amidolytic activities of these serine proteases were determined using respective chromogenic substrates. […]

## CC[C@H](C)[C@H](NC(=O)[C@H](CCCCN)NC(=O)[C@@H]1CCCN1C(=O)[C@@H](NC(=O)[C@H](C)NC(=O)[C@@H](NC(=O)[C@H](CCC(N)=O)NC(=O)[C@H](Cc1c[nH]cn1)NC(=O)CNC(=O)CNC(=O)[C@@H](N)CO)[C@@H](C)O)C(C)C)C(=O)N[C@@H](CO)C(=O)N[C@@H](CCCCN)C(=O)N[C@@H](CCC(N)=O)C(=O)NCC(=O)N[C@@H](CC(C)C)C(=O)NCC(=O)NCC(=O)N[C@@H](CC(=O)O)C(=O)N[C@@H](Cc1ccccc1)C(=O)N[C@@H](CCC(=O)O)C(=O)N[C@@H](CCC(=O)O)C(=O)N[C@H](C(=O)N1CCC[C@H]1C(=O)N[C@@H](CO)C(=O)N[C@@H](CC(=O)O)C(=O)N[C@@H](CCC(=O)O)C(=O)N[C@H](C(=O)N[C@H](C(=O)N[C@@H](CCC(=O)O)C(=O)O)[C@@H](C)CC)[C@@H](C)CC)[C@@H](C)CC [Avathrin] (H-SGGHQTAVPKISKQGLGGDFEEIPSDEIIE-OH; N-terminus and C-terminus assumed)
clot-bound thrombin
  IC50: 1740 ± 350 nM
[1]; 100 μM avathrin
  inhibition of other proteases: < 30%
[1]; thrombin versus other serine proteases
  selectivity preference for thrombin: at least four orders of magnitude
